{"source": "patent US20180298405A1", "about": "“METHODS AND COMPOSITIONS TO INCREASE HUMAN SOMATIC CELL NUCLEAR TRANSFER (SCNT) EFFICIENCY BY REMOVING HISTONE H3-LYSINE TRIMETHYLATION, AND DERIVATION OF HUMAN NT-ESC” (CHILDREN'S MEDICAL CENTER CORPORATION, priority 2015, published 2018)", "system": "reprogramming resistant regions (RRRs) / ZGA genes", "experiment": "RNA-seq of late 8-cell human SCNT embryos with or without KDM4A mRNA injection (ZGA of RRRs, KDM4A-responsive genes)", "format": "cell-based", "source_text": "A sliding window (size 20 kb, step size 10 kb) was used to assess the genome-wide expression level of 4-cell and 8-cell human embryos. For each window, the expression level was quantified with normalized RPM (reads per millions of uniquely mapped reads). […] These activated regions were classed into three groups based on their expression differences in human SCNT and IVF 8-cell embryos.\nThe SCNT embryos used for ZGA analysis were generated using oocytes donated by a single healthy person (#64) and dermal fibroblast cells from an AMD patient (DFB-8). SCNT and IVF embryos were cultured up to late 8-cell stage, when the compaction of blastomeres is initiated, then they were treated briefly with acid Tyrode solution to remove zona pellucida. To prepare for the 8-cell SCNT embryo, oocytes from a single oocyte donor, and skin fibroblast cells from a single somatic nuclear donor were used. All the procedures are the same as described in the “Human SCNT procedure and KMD4A mRNA injection” section. Only embryos that reached the late 8-cell stage synchronically 74 hours post activation were collected and used for this experiment.\nFor preparation of the control IVF embryos, several donated early 8-cell stage IVF embryos were thawed and cultured for 5-7 hours to allow them to reach late 8-cell stage before being processed. After removal of the zona pellucida, the denuded embryos were washed 3 times in PBS, loaded into RNAse and DNAse free PCR tubes, spin downed, and snap frozen in liquid nitrogen. Then, they were kept at −80° C. until use. As controls, dermal fibroblast cells of somatic nuclear donors were also prepared. Those fibroblast cells were cultured in a 25 cm^2 flask in DMEM 10% FBS, and approximately 10,000 cells/donor were collected, snap frozen, and stored at −80° C. until use.\nFive 8-cell embryos for each group were directly lysed and used for cDNA synthesis using SMART-Seq v4 Ultra Low Input RNA Kit (Clontech). For MEF donor, 10 ng total RNA was used for cDNA synthesis using SMART-Seq v4 Ultra Low Input RNA Kit. After amplification, the cDNA samples were fragmented using Covaris sonicator M220 to an average size of 150 bp (Covaris). Sequencing libraries were made with the fragmented DNA using NEBNext Ultra DNA Library Prep Kit for Illumina according to manufacturer's instruction (New England Biolabs) with different barcodes. For each RNA-seq analysis of hESCs, 1 μg total RNA was used for mRNA purification. Barcoded RNA-seq libraries were generated using NEBNext Ultra Directional RNA Library Prep Kit for Illumina (New England Biolabs). Single end 50 bp sequencing was performed on a HiSeq 2500 sequencer (Illumina). Sequencing reads were mapped to the human genome (hg19) with Tophat2. All programs were performed with default settings (unless otherwise specified). At least 22 million uniquely mapped reads were obtained for each sequencing library, and subsequently assembled into transcripts guided by the reference annotation (Refseq gene models) with Cufflinks v2.0.2. Expression level of each gene was quantified with normalized FPKM (fragments per kilobase of exon per million mapped fragments). Statistical analyses were performed with R (available at: “www.r-project.org/”). Independent 2 group Wilcoxon rank sum tests were used to compare distributions using the wilcox.test function in R. Pearson's r coefficient was calculated using the cor function with default parameters. The hierarchical clustering analysis of the global gene expression pattern in different samples was carried out using heatmap.2 function (gplots package) in R.", "key": {"[1]": {"details": "8-cell SCNT embryos, FC>2 versus non-injected"}}, "data": [{"substance": "KDM4A mRNA: in vitro transcribed mRNA of full length human KDM4A/JHDM3A cDNA, an H3K9me3 demethylase (SEQ ID NO: 1)", "values": [{"measurement": "fraction of the 318 RRRs markedly up-regulated", "setting": "[1]", "value": 50, "unit": "%"}, {"measurement": "number of the 318 RRRs markedly up-regulated", "setting": "[1]", "value": 158}, {"measurement": "number of genes significantly up-regulated (KDM4A-responsive genes)", "setting": "8-cell SCNT embryos, FPKM>5, FC>2", "value": 206}, {"measurement": "12-Sep Fold Change (log2) [KDM4A SCNT/Control SCNT]", "setting": "8-cell embryos", "value": 2, "unit": "log2"}, {"measurement": "AASDH Fold Change (log2) [KDM4A SCNT/Control SCNT]", "setting": "8-cell embryos", "value": 1.19, "unit": "log2"}, {"measurement": "ACBD5 Fold Change (log2) [KDM4A SCNT/Control SCNT]", "setting": "8-cell embryos", "value": 1.32, "unit": "log2"}, {"measurement": "ALG5 Fold Change (log2) [KDM4A SCNT/Control SCNT]", "setting": "8-cell embryos", "value": 1.89, "unit": "log2"}, {"measurement": "ALPPL2 Fold Change (log2) [KDM4A SCNT/Control SCNT]", "setting": "8-cell embryos", "value": 1.25, "unit": "log2"}, {"measurement": "APOC1P1 Fold Change (log2) [KDM4A SCNT/Control SCNT]", "setting": "8-cell embryos", "value": 1.03, "unit": "log2"}, {"measurement": "ATP5J2-PTCD1 Fold Change (log2) [KDM4A SCNT/Control SCNT]", "setting": "8-cell embryos", "value": 5.53, "unit": "log2"}, {"measurement": "BEX2 Fold Change (log2) [KDM4A SCNT/Control SCNT]", "setting": "8-cell embryos", "value": 1.05, "unit": "log2"}, {"measurement": "BLVRB Fold Change (log2) [KDM4A SCNT/Control SCNT]", "setting": "8-cell embryos", "value": 1.56, "unit": "log2"}, {"measurement": "BTAF1 Fold Change (log2) [KDM4A SCNT/Control SCNT]", "setting": "8-cell embryos", "value": 1.93, "unit": "log2"}, {"measurement": "BTK Fold Change (log2) [KDM4A SCNT/Control SCNT]", "setting": "8-cell embryos", "value": 1.09, "unit": "log2"}, {"measurement": "BUD31 Fold Change (log2) [KDM4A SCNT/Control SCNT]", "setting": "8-cell embryos", "value": 1.19, "unit": "log2"}, {"measurement": "C1D Fold Change (log2) [KDM4A SCNT/Control SCNT]", "setting": "8-cell embryos", "value": 1.67, "unit": "log2"}, {"measurement": "C2orf74 Fold Change (log2) [KDM4A SCNT/Control SCNT]", "setting": "8-cell embryos", "value": 1.28, "unit": "log2"}, {"measurement": "C11orf67 Fold Change (log2) [KDM4A SCNT/Control SCNT]", "setting": "8-cell embryos", "value": 1.34, "unit": "log2"}, {"measurement": "C12orf60 Fold Change (log2) [KDM4A SCNT/Control SCNT]", "setting": "8-cell embryos", "value": 1.78, "unit": "log2"}, {"measurement": "C16orf91 Fold Change (log2) [KDM4A SCNT/Control SCNT]", "setting": "8-cell embryos", "value": 1.24, "unit": "log2"}, {"measurement": "C17orf89 Fold Change (log2) [KDM4A SCNT/Control SCNT]", "setting": "8-cell embryos", "value": 1.09, "unit": "log2"}, {"measurement": "C18orf56 Fold Change (log2) [KDM4A SCNT/Control SCNT]", "setting": "8-cell embryos", "value": 1.43, "unit": "log2"}, {"measurement": "C20orf7 Fold Change (log2) [KDM4A SCNT/Control SCNT]", "setting": "8-cell embryos", "value": 2.14, "unit": "log2"}, {"measurement": "CAB39L Fold Change (log2) [KDM4A SCNT/Control SCNT]", "setting": "8-cell embryos", "value": 1.23, "unit": "log2"}, {"measurement": "CCAR1 Fold Change (log2) [KDM4A SCNT/Control SCNT]", "setting": "8-cell embryos", "value": 1.15, "unit": "log2"}, {"measurement": "CCDC86 Fold Change (log2) [KDM4A SCNT/Control SCNT]", "setting": "8-cell embryos", "value": 1.1, "unit": "log2"}, {"measurement": "CCL2 Fold Change (log2) [KDM4A SCNT/Control SCNT]", "setting": "8-cell embryos", "value": 3.05, "unit": "log2"}, {"measurement": "CCL15 Fold Change (log2) [KDM4A SCNT/Control SCNT]", "setting": "8-cell embryos", "value": 2.82, "unit": "log2"}, {"measurement": "CELA3B Fold Change (log2) [KDM4A SCNT/Control SCNT]", "setting": "8-cell embryos", "value": 1.63, "unit": "log2"}, {"measurement": "CENPC1 Fold Change (log2) [KDM4A SCNT/Control SCNT]", "setting": "8-cell embryos", "value": 1.1, "unit": "log2"}, {"measurement": "CLC Fold Change (log2) [KDM4A SCNT/Control SCNT]", "setting": "8-cell embryos", "value": 3.69, "unit": "log2"}, {"measurement": "CLDN6 Fold Change (log2) [KDM4A SCNT/Control SCNT]", "setting": "8-cell embryos", "value": 1.65, "unit": "log2"}, {"measurement": "CLK4 Fold Change (log2) [KDM4A SCNT/Control SCNT]", "setting": "8-cell embryos", "value": 1.21, "unit": "log2"}, {"measurement": "CNKSR3 Fold Change (log2) [KDM4A SCNT/Control SCNT]", "setting": "8-cell embryos", "value": 1.48, "unit": "log2"}, {"measurement": "CNPY4 Fold Change (log2) [KDM4A SCNT/Control SCNT]", "setting": "8-cell embryos", "value": 1.77, "unit": "log2"}, {"measurement": "COX7B2 Fold Change (log2) [KDM4A SCNT/Control SCNT]", "setting": "8-cell embryos", "value": 3.15, "unit": "log2"}, {"measurement": "COX17 Fold Change (log2) [KDM4A SCNT/Control SCNT]", "setting": "8-cell embryos", "value": 1.44, "unit": "log2"}, {"measurement": "CSAG1 Fold Change (log2) [KDM4A SCNT/Control SCNT]", "setting": "8-cell embryos", "value": 3.27, "unit": "log2"}, {"measurement": "CSTF3 Fold Change (log2) [KDM4A SCNT/Control SCNT]", "setting": "8-cell embryos", "value": 1.29, "unit": "log2"}, {"measurement": "CUL2 Fold Change (log2) [KDM4A SCNT/Control SCNT]", "setting": "8-cell embryos", "value": 1.29, "unit": "log2"}, {"measurement": "CXorf61 Fold Change (log2) [KDM4A SCNT/Control SCNT]", "setting": "8-cell embryos", "value": 2.18, "unit": "log2"}, {"measurement": "DDX26B Fold Change (log2) [KDM4A SCNT/Control SCNT]", "setting": "8-cell embryos", "value": 1.14, "unit": "log2"}, {"measurement": "DEFB122 Fold Change (log2) [KDM4A SCNT/Control SCNT]", "setting": "8-cell embryos", "value": 1.06, "unit": "log2"}, {"measurement": "DLEU7 Fold Change (log2) [KDM4A SCNT/Control SCNT]", "setting": "8-cell embryos", "value": 4.91, "unit": "log2"}, {"measurement": "DNASE2 Fold Change (log2) [KDM4A SCNT/Control SCNT]", "setting": "8-cell embryos", "value": 1.11, "unit": "log2"}, {"measurement": "DRAM1 Fold Change (log2) [KDM4A SCNT/Control SCNT]", "setting": "8-cell embryos", "value": 1.6, "unit": "log2"}, {"measurement": "ECE2 Fold Change (log2) [KDM4A SCNT/Control SCNT]", "setting": "8-cell embryos", "value": 1.09, "unit": "log2"}, {"measurement": "EIF1AD Fold Change (log2) [KDM4A SCNT/Control SCNT]", "setting": "8-cell embryos", "value": 1.18, "unit": "log2"}, {"measurement": "ELL2 Fold Change (log2) [KDM4A SCNT/Control SCNT]", "setting": "8-cell embryos", "value": 1.01, "unit": "log2"}, {"measurement": "FAM9A Fold Change (log2) [KDM4A SCNT/Control SCNT]", "setting": "8-cell embryos", "value": 3.83, "unit": "log2"}, {"measurement": "FAM19A3 Fold Change (log2) [KDM4A SCNT/Control SCNT]", "setting": "8-cell embryos", "value": 2.58, "unit": "log2"}]}]}
